PubChem BioAssay AID743396 (Broad Institute, 2014)
Active and inactive are the calls of the source.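 The calls were made as follows: active = fitted curve reaches a 40% rise in fluorescent cells at or below the top valid dose; inactive = opposite-direction effect, or the rest.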

experiment: compound fluorescence in GFP channel, mTEFS cells – imaging, mTEFS fibroblasts, cherry-pick, artefact control for X-chromosome reactivation project, dose response (AID 743396); details: mTEFS fibroblasts autofluorescence, GFP-channel imaging, 3 days; at 19.5 µM (top of the series);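 also: raw share of Hoechst-counted cells scored GFP positive without control normalization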

Compound	% fluorescent cells increase
O=C(c1cccc2ccccc12)C1CCCN(Cc2ccon2)C1 (centres undefined)	0% (inactive)
COP(=S)(OC)Oc1ccc(Sc2ccc(OP(=S)(OC)OC)cc2)cc1	0.075% (inactive)

same assay, conditions: mTEFS fibroblasts autofluorescence, GFP-channel imaging, 3 days; at 19.5 µM (top of the series); cells pretreated with 5-aza-dC

Compound	% fluorescent cells increase
CCc1ccccc1OCC(=O)Nc1ccc(N2CCCC2)cc1C	0.096% (inactive)
Cc1ccc(-c2nc3ccc(Br)cn3c2Cc2ccccc2C(F)(F)F)cc1	0.042% (inactive)
Cc1ccc(S(=O)(=O)N2CCOCC2)cc1C(=O)OCC(=O)NC1CCS(=O)(=O)C1 (centres undefined)	0.086% (inactive)
COc1ccc(C(=O)Nc2ccc3oc(-c4cccc(F)c4)nc3c2)cc1OC	-0.003% (inactive)
CC(C)CC#Cc1ccc([C@@H]2[C@@H](CO)N3C(=O)CN(C(=O)c4cccc(F)c4)C[C@H]23)cc1	-0.108% (inactive)
O=[N+]([O-])c1ccc(/C=N/NC(=S)Nc2ccc(Cl)cc2Cl)s1	0.614% (inactive)
Cc1cccc(NCc2ccc(O)c3ncccc23)c1C	0.074% (inactive)
NC(=NC(=O)c1cccc(C(F)(F)F)c1)c1ccc(C(F)(F)F)cn1	0% (inactive)
Cc1ccc(S(=O)(=O)N2CC3(O)CN(C(=O)OC(C)C)N(C(=O)OC(C)C)CC3(OC(=O)NCc3ccccc3)C2)cc1 (centres undefined)	0.003% (inactive)
COc1cc(/C=C/c2ccc3cccc(O)c3n2)c(Br)cc1O	0% (inactive)
CN(C1CCCCC1)S(=O)(=O)c1ccc(C(=O)N2CCN(c3nc4ccccc4s3)CC2)cc1	-0.007% (inactive)
Nc1ccccc1Nc1cc(-c2ccccc2)[nH]n1	2.52% (inactive)
CCN(CC)CCCN=Cc1c(O)n(-c2cccc(C)c2)c(=O)c2ccccc12	-0.011% (inactive)
NNC(=O)/C(=C\c1ccc(Br)cc1)NC(=O)c1cccs1	0.233% (inactive)
COc1ccc(N=Nc2ccc(O)c(P(=O)(c3ccccc3)c3ccccc3)c2)cc1	0% (inactive)
CC(C)c1cc(C(=O)N/N=C/c2cccnc2)cs1	-0.004% (inactive)
CC1=NN(c2ccc(C)c(C)c2)C(=O)/C1=C\C=C\c1ccc([N+](=O)[O-])o1	-0.007% (inactive)
O=C(c1nc(SCc2ccc([N+](=O)[O-])cc2)n2ccccc12)C(F)(F)F	0.04% (inactive)
C[C@@H]1CN([C@@H](C)CO)C(=O)c2ccccc2-c2ccccc2CO[C@@H]1CN(C)C(=O)Nc1ccc2c(c1)OCO2	-0.044% (inactive)
CC(=O)N/C(N)=N/c1nc(=O)c2ccccc2s1	0.24% (inactive)
O=C(CSc1nc2ccccc2[nH]1)N/N=C/C=C/c1ccccc1[N+](=O)[O-]	0.094% (inactive)

Compound	% fluorescent cells increase
C[C@@H]1CN([C@@H](C)CO)C(=O)c2cc(NS(=O)(=O)c3cn(C)cn3)ccc2O[C@@H](C)CCCCO[C@H]1CN(C)C(=O)c1ccccc1	0% (inactive)
N/C(=N\OC(=O)C12CC3CC(CC(C3)C1)C2)c1ccncc1	-0.004% (inactive)
O=C(COC(=O)/C=C/c1cccc(C(F)(F)F)c1)NC(=O)NCc1ccco1	0.351% (inactive)
C[C@@H]1COc2cccc(NCCO)c2S(=O)(=O)N1	0% (inactive)
CC(=O)c1c(COC(=O)c2ccccc2Cl)nc2ccccc2[n+]1[O-]	0.001% (inactive)
CCOC(=O)c1ccc(NC(=O)c2ccnn2C)cc1	0% (inactive)
Nc1nnc(SCC(=O)c2ccc([N+](=O)[O-])cc2)s1	-0.007% (inactive)
CCOC(=O)Cc1c(C)[nH]n(-c2ccccc2)c1=O	0.015% (inactive)
Cc1ccc(-c2csc3nc4c5ccccc5c(NCCCN(C)C)nn4c(=O)c23)cc1	0% (inactive)
O=C(NNC(=O)c1cc2ccccc2o1)c1ccc(Cl)cc1	0.148% (inactive)
COc1cccc2cc(C(=O)N(Cc3cccs3)CC3CCCO3)c(=O)oc12 (centres undefined)	0.013% (inactive)
COc1ccc(/C=c2/sc3nc(-c4ccccc4)c(-c4ccccc4)n3c2=O)cc1	0.085% (inactive)
CN(C)C(=O)CN1CCN(Cc2nc(CC3CC3)no2)CC1	0.246% (inactive)
Cn1cc(/C=C/c2cc[n+](C)cc2)c2cc(Cl)ccc21	6.85% (inactive)
COc1ccc(-c2nnc(NC(=O)c3ccc(F)cc3)o2)cc1	0% (inactive)
CNc1ccc([N+](=O)[O-])cc1C(=O)O	-0.007% (inactive)
COCCNC(=O)CSc1nc2scc(-c3ccccc3)c2c(=O)[nH]1	0.106% (inactive)
CCOC(=O)Cn1c(=NC(=O)c2ccc([N+](=O)[O-])s2)sc2ccccc21	12% (inactive)
CCOC(=O)c1sc(-c2ccc(F)cc2)cc1NC(=O)Nc1ccccc1OC	-0.011% (inactive)
Nc1c(C(=O)O)cnn1-c1ccc([N+](=O)[O-])cc1	0.002% (inactive)
Cc1ccc(S(=O)(=O)Nc2ccc3c(c2)C(=O)N([C@@H](C)CO)C[C@@H](C)[C@@H](CN(C)Cc2ccc(C(=O)Nc4ccccc4N)cc2)O3)cc1	0% (inactive)

Compound	% fluorescent cells increase
CCN(CC(=O)Nc1sc2c(c1C#N)CCCC2)CC(=O)NC1CCS(=O)(=O)C1 (centres undefined)	0.225% (inactive)
N=c1ccn2c(n1)OC1C(O)C(CO)OC12 (centres undefined)	-0.006% (inactive)
CCCNC(=O)N1CC2(CN(S(C)(=O)=O)C2)c2c(n(C)c3cc(OC)ccc23)[C@H]1CO	0.032% (inactive)
O=C(N/N=C/c1ccc2cccnc2c1)c1nc2ccccc2c(=O)[nH]1	0.022% (inactive)
Cc1ccnc(NS(=O)(=O)c2ccc3c(c2)CCO3)c1	0.175% (inactive)
Cc1[nH]c2ccccc2c1/C=N/Nc1nc2ccccc2[nH]1	0% (inactive)
C=C(C)c1cccc(C(C)(C)NC(=O)Nc2nnc(C(C)C)s2)c1	0% (inactive)
CC1CN(Cc2c(O)ccc3c2oc(=O)c2ccccc23)CC(C)O1 (centres undefined)	0.279% (inactive)
COc1ccc(C2=C(c3ccccc3)OC(OC)c3cc(F)ccc32)cn1 (centres undefined)	0.033% (inactive)
Cc1ccc2[nH]c(C)c(/C=C/c3cc[n+](C)cc3)c2c1	8.78% (inactive)
C=CCn1c(SCC(=O)N(CC)C2CCS(=O)(=O)C2)nc2sc3c(c2c1=O)CCC3 (centres undefined)	0.034% (inactive)
Oc1ccc(Br)cc1C=Nc1ccc2c3c(cccc13)CC2	3.42% (inactive)
CC(=O)Nc1ccc(S(=O)(=O)N(C)c2ccc(OCC(=O)NCCc3ccccc3F)cc2)cc1	0.014% (inactive)
COc1cccc(CNC(=O)c2cc(S(=O)(=O)N3CCOCC3)cn2C)c1	0.274% (inactive)
O=C(COC(=O)c1cc(=O)[nH]c(=O)[nH]1)Nc1cccc(S(=O)(=O)N2CCCCC2)c1	0% (inactive)
CC(=O)NC(c1ccc(Cl)cc1)c1c(O)ccc2ccc(O)cc12 (centres undefined)	0.001% (inactive)
COc1ccc(CN(C)C[C@H]2OCCCC[C@H](C)Oc3ccc(NC(=O)Nc4ccc(F)cc4)cc3C(=O)N([C@H](C)CO)C[C@H]2C)cc1	0.183% (inactive)
CCCCC(=O)N(C)c1c(CC)nc2c(OCC(=O)c3ccc(F)cc3)cccn12	3.76% (inactive)
Nc1[nH]c(=O)nc(Nc2ccccc2)c1N=O	0% (inactive)
Cc1ccc(NCc2nnc(SCC(=O)NNC(=O)Cc3ccccc3)n2C)cc1	0.009% (inactive)
COc1ccc(C)c(-n2c(=O)n(Cc3ccccc3)c(=O)c3[nH]cnc32)c1	0.074% (inactive)

Compound	% fluorescent cells increase
C[C@H](CO)N1C[C@H](C)[C@H](CN(C)S(=O)(=O)c2ccccc2)Oc2ccc(NS(=O)(=O)c3ccc(Cl)cc3)cc2C1=O	0.016% (inactive)
COc1ccc(-n2c(=O)n(Cc3ccccc3)c(=O)c3[nH]cnc32)cc1	0.008% (inactive)
Cc1c(/C=N\NC(=O)c2cc3ccccc3o2)c2ccccc2n1C	0% (inactive)
COc1cc(/C=C(\C#N)c2nc3ccccc3o2)ccc1O	2.54% (inactive)
O=C(O)c1ccccc1C1Nc2ccccc2C(=O)N1CCCN1CCOCC1 (centres undefined)	-0.004% (inactive)
CN1CCN(S(=O)(=O)c2ccc(C#N)cc2)C(c2ccccc2)C1 (centres undefined)	0% (inactive)
Cc1nn(-c2ccccc2)c2ncc(C(=O)c3cc(Cl)ccc3O)cc12	0% (inactive)
Cc1ccc(N2C(=O)C3C4C=CC(CNC(=S)N5CCN(c6ccccc6)CC5)(O4)C3C2=O)cc1 (centres undefined)	1.71% (inactive)
S=C(SSC(=S)N1CCOCC1)N1CCOCC1	0% (inactive)
O=C1C2C3C=CC(CNS(=O)(=O)c4ccccc4[N+](=O)[O-])(O3)C2C(=O)N1c1ccccc1 (centres undefined)	0.044% (inactive)
C/C(=N\NC(=O)c1ccccc1Cl)c1ccccn1	0% (inactive)
O=C(O)c1ccccc1CSc1nc2ccccc2n1Cc1ccccc1C(=O)O	0.253% (inactive)
O=C(N/N=C/c1ccc(Br)s1)c1ccc([N+](=O)[O-])cc1	-0.007% (inactive)
O=C(NC1=C(NC2CCS(=O)(=O)C2)C(=O)c2ccccc2C1=O)c1ccccc1 (centres undefined)	0% (inactive)
Oc1cccc(/C=N/NC(=S)NCCN2CCOCC2)c1O	0% (inactive)
Cn1c(=O)c(C#N)c(-c2ccc(F)cc2)c2cc(C(=O)c3cc(Cl)cc(Cl)c3O)cnc21	0.617% (inactive)
Cc1ccc(C(=O)NCc2ccccn2)cc1NC1=NC2CS(=O)(=O)CC2S1 (centres undefined)	0.061% (inactive)
C[C@H]1CN([C@@H](C)CO)C(=O)c2ccccc2-c2ccccc2CO[C@H]1CN(C)C(=O)[C@@H](Cc1ccccc1)N(C)C	0% (inactive)
Cc1ccc(S(=O)(=O)N(C)C[C@H]2Oc3ccc(NC(=O)Nc4ccccc4)cc3CC(=O)N([C@H](C)CO)C[C@@H]2C)cc1	0% (inactive)
